Source: patent US4389394A, “Methods for reducing dental caries” (Talres Development (N.A.) N.V., priority 1978, dated 1983)
“Also recorded” adds a separate entry of the source.

How the values were obtained:
dental plaque = test: (F) Human volunteers: acid production by dental plaque after mouthrinse (glucose pre-rinse); assay type: in vivo; details: statement in words
Protocol: The compound 4,1',6'-trichloro-4,1',6'-trideoxygalactosucrose was selected as a suitable candidate for further testing. A mouthrinse in accordance with the invention was prepared using the selected compound as active ingredient. The level of the active ingredient was initially chosen to be such that the mouthrinse tasted the same as a 15% w/v solution of sucrose.
Six subjects were used, who were first acquainted with the available toxicological data and who subsequently agreed to take part in the tests. The subjects were instructed not to clean their teeth on their day of testing. At sampling time, 0 min, each subject took 5% w/v glucose mouthrinse for 2 minutes, then waited a further 8 minutes before the buccal and lingual plaque of one side of the jaw (upper and lower) was removed and placed on aluminium foil and sealed. […]
Samples (0.2 ml) were tested after admixture with 0.1 ml 5% w/v glucose and 0.2 ml sterile saliva. The pH was monitored in quadruplicated tests.
Pooling of data at different times was not justifiable, and the Duncan procedure could not be followed. Data was therefore analysed by computer using an `Analysis of Variance` program and a `Description of Populations` program.

S. mutans [1] = test: (D) Further tests on adherence to teeth; assay type: cell-based, Streptococcus mutans; details: for adherence of the cells: statement in words; for % coverage after 0.5 hours / % coverage after 4 hours: glass slide, 0.055 molar, Duncan procedure
Protocol: (§1) The extent to which cells of S. mutans adhere to teeth was investigated using a recognized model system. Solutions of the same substances as in (A) were made up, and the degree of deposition of suspended cells on to glass was studied using a "Magiscan" image analyser (Talyer et al., 1978 Praktischen Metallographie, Sonderbande 8: 433-442).
While recording the pH during the tests of (C), the adherence was monitored in the same way as in (B). The percentage coverage of a glass slide was determined at 0.5 and 4 hours for each solution, and the results treated by the Duncan procedure.

[2] = West German Offenlegungsschrift No. 2700036; cited from earlier work
S. mutans [3] = test: (C) Further tests on pH reduction; assay type: cell-based, Streptococcus mutans; details: for Mean pH: 0.055 molar chlorodeoxy derivative, pooled data for 2, 3 and 4 hours, Duncan procedure
Protocol: (§2) Plain aqueous solutions were used and also solutions containing amino acids (protein hydrolysate) 1% w/v to approximate the buffering effect of natural saliva. Control experiments were effected using no saccharide in order to illustrate the endogenous metabolism of the organism. Each experiment was quadruplicated and was run at 37° C. The pH was measured at 0, 0.5, 1, 1.5,2, 3 and 4 hours.
Twelve sets of tests were carried out in the same way as described above at (A) but using solutions which were 0.055 molar in the respective chlorodeoxy derivative.
Solutions of the following were employed:
(i) Saline, negative control for endogenous metabolism
(ii) Sucrose, positive control
(iii) 6,1',6'-trichloro-6,1',6'-trideoxysucrose, compound no. 7.
(iv) Compound no. 7 plus sucrose.
(v) 1',6'-dichloro-1',6'-dideoxysucrose, compound no. 4
(vi) Compound no. 4 plus sucrose
(vii) 4,1',6'-trichloro-4,1',6'-trideoxygalactosucrose, Compound no. 5.
(viii) Compound no. 5 plus sucrose
(ix) 4,6,6'-trichloro-4,6,6'-trideoxygalactosucrose, Compound no. 6
(x) Compound no. 6 plus sucrose
(xi) 1'-chloro-1'-deoxysucrose, compound no. 1
(xii) Compound no. 1 plus sucrose
The acid production was monitored as before.

[4] = test system: Streptococcus mutans NCTC 10832; test: (A) Effect on reduction of pH by Streptococcus mutans; assay type: cell-based; details: for pH: 0.05 molar each saccharide, 37° C; for Mean pH: Duncan Procedure sub-sets, amino acids where named in the solution
Source text: Mouth flora such as S. mutans cause dental caries by producing acid which erodes the tooth enamel. The cells exude a polysaccharide which firmly adheres them to the tooth surfaces as plaque, thus enhancing the local erosion by the acid. The effect of chlorodeoxysucroses on acid production by S. mutans in sucrose solutions was studied in comparison with the effect produced by xylitol, an agent proposed as a caries preventative.
as §2

S. mutans [5] = test: (B) Adherence to teeth: deposition of suspended cells on to glass (Magiscan image analyser); assay type: cell-based, Streptococcus mutans; details: for Coverage (%) after 0.5 h / Coverage (%) after 4.0 h: mean of 40 determinations
Source text: as §1
Each reading is the mean of 40 determinations.

S. mutans [6] = test: Scanning electron microscopy of glass with adherent cells; assay type: cell-based, Streptococcus mutans; details: sucrose medium; qualitative
[7] = 0.5 hours, in the presence of sucrose

Structure (SMILES): O[C@@H]1[C@@H](O)[C@@H](O[C@]2(CCl)O[C@H](CCl)[C@@H](O)[C@@H]2O)O[C@H](CCl)[C@H]1O
- antiacidogenic effect on plaque (dental plaque): Statistically conclusive proof that the mouthrinse was evincing an anti-acidogenic effect was not available
- yield of plaque as perceived by subjects (dental plaque): increased the yield of plaque

Structure (SMILES): OC[C@H]1O[C@@](CCl)(O[C@H]2O[C@H](CO)[C@@H](O)[C@H](O)[C@H]2O)[C@@H](O)[C@@H]1O [Compound no. 1, 1'-chloro-1'-deoxysucrose]
- adherence of the cells (S. mutans [1]; [7]): most active compounds at 0.5 hours
- adherence of the cells (S. mutans [1]; 4 hours): the most active
- % coverage after 0.5 hours (S. mutans [1]): 35.6%
- % coverage after 4 hours (S. mutans [1]): 52.3%
- sweetness relative to sucrose [2]: do not possess such strong sweetening action
- Mean pH (S. mutans [3]): 5.09

Structure (SMILES): OC[C@H]1O[C@H](O[C@]2(CCl)O[C@H](CCl)[C@@H](O)[C@@H]2O)[C@H](O)[C@@H](O)[C@@H]1O [Compound no. 4, 1',6'-dichloro-1',6'-dideoxysucrose]
- adherence of the cells (S. mutans [1]; [7]): falling in the sub-set g which includes sucrose itself
- adherence of the cells (S. mutans [1]; 4 hours): did not reduce the adherence
- % coverage after 0.5 hours (S. mutans [1]): 51.6%
- % coverage after 4 hours (S. mutans [1]): 70.3%
- sweetness relative to sucrose [2]: many times sweeter than sucrose
- Mean pH (S. mutans [3]): 5.48

Structure (SMILES): OC[C@@]1(O[C@H]2O[C@H](CCl)[C@H](Cl)[C@H](O)[C@H]2O)O[C@H](CCl)[C@@H](O)[C@@H]1O [Compound no. 6, 4,6-dichloro-4,6-dideoxy-α-D-galactopyranosyl-6-chloro-6-deoxy-β-D-fructofuranoside]
- % coverage after 0.5 hours (S. mutans [1]): 51.6%
- % coverage after 4 hours (S. mutans [1]): 70.8%
- sweetness relative to sucrose [2]: do not possess such strong sweetening action
- Mean pH (S. mutans [3]): 5.20

Structure (SMILES): O[C@@H]1[C@@H](O)[C@@H](O[C@]2(CCl)O[C@H](CCl)[C@@H](O)[C@@H]2O)O[C@H](CCl)[C@H]1O [Compound no. 7, 6,1',6'-trichloro-6,1',6'-trideoxysucrose]
- adherence of the cells (S. mutans [1]; [7]): most active compounds at 0.5 hours
- adherence of the cells (S. mutans [1]; 4 hours): the most active
- % coverage after 0.5 hours (S. mutans [1]): 29.7%
- % coverage after 4 hours (S. mutans [1]): 54.2%
- sweetness relative to sucrose [2]: many times sweeter than sucrose
- Mean pH (S. mutans [3]): 6.48
- effect on acid production / pH (S. mutans [3]; statement in words, pooled 2, 3 and 4 hours): especially effective

Structure (SMILES): OC[C@H]1O[C@@](CO)(O[C@H]2O[C@H](CO)[C@@H](O)[C@H](O)[C@H]2O)[C@@H](O)[C@@H]1O [Sucrose, sucrose]
- % coverage after 0.5 hours (S. mutans [1]): 51.2%
- % coverage after 4 hours (S. mutans [1]): 69.2%
- pH ([4]; 0 h, no amino acids): 5.69
- pH ([4]; 0 h, with amino acids 1% w/v): 5.98
- pH ([4]; 0.5 h, no amino acids): 4.57
- pH ([4]; 0.5 h, with amino acids 1% w/v): 5.55
- pH ([4]; 1.0 h, no amino acids): 4.57
- pH ([4]; 1.0 h, with amino acids 1% w/v): 5.36
- pH ([4]; 1.5 h, no amino acids): 4.58
- pH ([4]; 1.5 h, with amino acids 1% w/v): 5.10
- pH ([4]; 2.0 h, no amino acids): 4.54
- pH ([4]; 2.0 h, with amino acids 1% w/v): 5.00
- pH ([4]; 3.0 h, no amino acids): 4.63
- pH ([4]; 3.0 h, with amino acids 1% w/v): 4.92
- pH ([4]; 4.0 h, no amino acids): 4.55
- pH ([4]; 4.0 h, with amino acids 1% w/v): 4.79
- Mean pH [4]: 4.57
- Mean pH (S. mutans [3]): 4.33
- Coverage (%) after 0.5 h (S. mutans [5]; no amino acid): 37.28%
- Coverage (%) after 4.0 h (S. mutans [5]; no amino acid): 65.83%
- Coverage (%) after 0.5 h (S. mutans [5]; with amino acid): 31.89%
- Coverage (%) after 4.0 h (S. mutans [5]; with amino acid): 75.95%
- extracellular coating and size of clumps of adherent cells (S. mutans [6]): characteristically clumped and were coated with extracellular polysaccharide

Structure (SMILES): OC[C@@H](O)[C@H](O)[C@@H](O)CO [Xylitol, xylitol]
- pH ([4]; 0 h, no amino acids): 5.94
- pH ([4]; 0.5 h, no amino acids): 5.50
- pH ([4]; 1.0 h, no amino acids): 5.42
- pH ([4]; 1.5 h, no amino acids): 5.39
- pH ([4]; 2.0 h, no amino acids): 5.32
- pH ([4]; 3.0 h, no amino acids): 5.38
- pH ([4]; 4.0 h, no amino acids): 5.37
- Mean pH [4]: 5.36
- effect on acid production ([4]; statement in words): never had a statistically significally effect; also recorded: non-cariogenic but not anti-cariogenic; also recorded: gave about the same mean pH as when carbohydrate was excluded
- degree of adhesion (S. mutans [5]; Mann Whitney U-test, statement in words): appeared to cause an increase rather than a decrease
- Coverage (%) after 0.5 h (S. mutans [5]; no amino acid): 42.31%
- Coverage (%) after 4.0 h (S. mutans [5]; no amino acid): 74.21%
- extracellular coating and size of clumps of adherent cells (S. mutans [6]): No such effect was observed

Structure (SMILES): OC[C@H]1O[C@@](CO)(O[C@H]2O[C@H](CO)[C@H](Cl)[C@H](O)[C@H]2O)[C@@H](O)[C@@H]1O [compound 2, 4-chloro-4-deoxy-α-D-galactopyranosyl-β-D-fructofuranoside]
- sweetness relative to sucrose [2]: do not possess such strong sweetening action

Structure (SMILES): OC[C@H]1O[C@@](CCl)(O[C@H]2O[C@H](CO)[C@H](Cl)[C@H](O)[C@H]2O)[C@@H](O)[C@@H]1O [compound 3, 4-chloro-4-deoxy-α-D-galactopyranosyl-1-chloro-1-deoxy-β-D-fructofuranoside]
- sweetness relative to sucrose [2]: many times sweeter than sucrose

Structure (SMILES): O[C@@H]1[C@@H](O)[C@@H](O[C@]2(CCl)O[C@H](CCl)[C@@H](O)[C@@H]2O)O[C@H](CCl)[C@@H]1Cl [compound 8, 4,6-dichloro-4,6-dideoxy-α-D-galactopyranosyl-1,6-dichloro-1,6-dideoxy-β-D-fructofuranoside]
- sweetness relative to sucrose [2]: many times sweeter than sucrose

Structure (SMILES): O[C@@H]1[C@@H](O)[C@@H](O[C@]2(CCl)O[C@H](CCl)[C@@H](O)[C@@H]2O)O[C@H](CCl)[C@H]1Cl [compound 9, 4,6,1',6'-tetrachloro-4,6,1',6'-tetradeoxysucrose]
- sweetness relative to sucrose [2]: many times sweeter than sucrose
